In brackets after ≈: the same amount, converted by molar mass. Several values for one entry are separate records, joined by “and”; a condition that tells them apart may be missing. Equal entries are not always repeated. Where two headings read alike, the source gives them in different places.
Key:
[1] = target: BCL6 BTB domain (Homo sapiens, UniProt P41182); test: biochemical; settings: for BCL6 TR-FRET pIC50 mean: mean of n replicates
Protocol: Supplementary experimental: protein production, purification and crystallography
3C protease cleavage site.
used without cleaving the tag, as a 6His was needed to bind to the anti-6His-Terbium antibody. For
For both plasmid constructs described above, transformed BL21-AI E. coli cells were grown in LB
carried out at 18 °C for 18 hours. Cells were harvested by centrifugation (5500 g for 30 minutes at 4
oC) and stored at -80 °C.
Cells were re-suspended in a buffer composed of 20 mM Tris pH 8, 250 mM NaCl, 1 mM MgCl2, 0.5
Cells were lysed by sonication followed by centrifugation at 21,000 g for 45 minutes at 4 °C. […]
The final protein was assessed for purity
and molar mass by SDS-PAGE and high-resolution mass spectrometry, respectively.
directly eluted from the HisTrap FF column without HRV-3C treatment, and submitted to Superdex75
gel filtration as described above. […]
2. Supplementary experimental: biological assay conditions
IC50 values were determined using
a sigmoidal four-parameter logistic fit equation.

[2] = NMR solubility assay; assay type: physicochemical; settings: HEPES buffer, 5% DMSO, room temperature
Protocol: 3. Supplementary experimental: physicochemical assays
The plate was then sealed and incubated at room temperature for 20 hours, without shaking. The plate was centrifuged again for 1 minute at […]
spectrometer equipped with a 5 mm TCI-CryoProbe. […]
deuterated solvent. […] All NMR data were acquired at the […]
contained 16k time-domain data points. Relaxation delay was set to 20 sec. […]

[3] = PAMPA passive permeability pH 7.4; settings: pH 7.4, passive permeability Pe
[4] = TR-FRET IC50 individual replicates, single replicates, italic values used 10nM BCL6, otherwise 1nM BCL6
[5] = read-out: BCL6 TR-FRET Geo Mean IC50, geometric mean of n replicates, supplement
[6] = read-out: TR-FRET IC50, tables and figures
[7] = read-out: TR-FRET IC50 individual replicates, single replicates, italic values used 10nM BCL6, otherwise 1nM BCL6

SMILES: CNC(=O)[C@H](C)Nc1cc(=O)[nH]c2ccc(Nc3ccnc(Cl)c3C#N)cc12 [Compound 12c, (S)-2-((6-((2-Chloro-3-cyanopyridin-4-yl)amino)-2-oxo-1,2-dihydroquinolin-4-yl)amino)-N-methylpropanamide]
- IC50 [1, 4]: 3390 nM and 2070 nM and 2270 nM and 3400 nM and 3900 nM and 2940 nM and 1540 nM
- BCL6 TR-FRET pIC50 mean [1]: 5.57 and 5.574
- IC50 [1, 5]: 2670 nM
- IC50 [1, 6]: 2670 nM
- solubility at 20 h [2]: 64 µM (≈ 25.4 µg/mL)

SMILES: CNC(=O)C(C)Nc1cc(=O)n(C)c2ccc(Nc3ccnc(Cl)c3C#N)cc12 (centres unmarked) [Compound 13a, 2-((6-((2-Chloro-3-cyanopyridin-4-yl)amino)-1-methyl-2-oxo-1,2-dihydroquinolin-4-yl)amino)-N-methylpropanamide]
- solubility at 20 h [2]: 184 µM (≈ 75.6 µg/mL)
- PAMPA7.4 [3]: <0.2 x10^-6 cms^-1

SMILES: C[C@@H](Nc1cc(=O)n(C)c2ccc(Nc3ccnc(Cl)c3C#N)cc12)c1ncccn1 [Compound 13f, (R)-2-Chloro-4-((1-methyl-2-oxo-4-((1-(pyrimidin-2-yl)ethyl)amino)-1,2-dihydroquinolin-6-yl)amino)nicotinonitrile]
- solubility at 20 h [2]: 126 µM (≈ 54.4 µg/mL)
- PAMPA7.4 [3]: 0.8 x10^-6 cms^-1

SMILES: CC(Nc1cc(=O)n(C)c2ccc(Nc3ccnc(Cl)c3C#N)cc12)c1ncn(C)n1 (centres unmarked) [Compound 13d, 2-Chloro-4-((1-methyl-4-((1-(1-methyl-1H-1,2,4-triazol-3-yl)ethyl)amino)-2-oxo-1,2-dihydroquinolin-6-yl)amino)nicotinonitrile]
- solubility at 20 h [2]: 258 µM (≈ 112 µg/mL)

SMILES: Cn1c(=O)cc(NCCF)c2cc(Nc3cc(C(=O)O)nc(Cl)c3C#N)ccc21 [Compound 11c, 6-Chloro-5-cyano-4-((4-((2-fluoroethyl)amino)-1-methyl-2-oxo-1,2-dihydroquinolin-6-yl)amino)picolinic Acid]
- BCL6 TR-FRET pIC50 mean [1]: 6.06 and 6.057
- IC50 [1, 5]: 880 nM and 878 nM
- IC50 [1, 6]: 880 nM
- IC50 [1, 7]: 870 nM and 890 nM and 880 nM
- solubility at 20 h [2]: 82 µM (≈ 34.1 µg/mL)

SMILES: Cn1c(=O)cc(NCC2CC2)c2cc(Nc3cc(C(=O)O)nc(Cl)c3C#N)ccc21 [Compound 11d, 6-Chloro-5-cyano-4-((4-((cyclopropylmethyl)amino)-1-methyl-2-oxo-1,2-dihydroquinolin-6-yl)amino)picolinic Acid]
- IC50 [1, 4]: 270 nM and 420 nM
- BCL6 TR-FRET pIC50 mean [1]: 6.46 and 6.461
- IC50 [1, 5]: 350 nM and 346 nM
- IC50 [1, 6]: 350 nM
- IC50 [1, 7]: 360 nM and 350 nM
- solubility at 20 h [2]: 324 µM (≈ 137 µg/mL)

SMILES: CCCNc1cc(=O)n(C)c2ccc(Nc3cc(C(=O)O)nc(Cl)c3C#N)cc12 [Compound 11b, 6-Chloro-5-cyano-4-((1-methyl-2-oxo-4-(propylamino)-1,2-dihydroquinolin-6-yl)amino)picolinic Acid]
- IC50 [1, 4]: 1330 nM and 1810 nM
- BCL6 TR-FRET pIC50 mean [1]: 5.82 and 5.822
- IC50 [1, 5]: 1510 nM
- IC50 [1, 6]: 1510 nM
- IC50 [1, 7]: 1440 nM and 1490 nM
- solubility at 20 h [2]: 40 µM (≈ 16.5 µg/mL)

SMILES: CC(Nc1cc(=O)n(C)c2ccc(Nc3ccnc(Cl)c3C#N)cc12)c1ncc(C2CC2)cn1 (centres unmarked) [Compound 24b, 2-Chloro-4-((4-((1-(5-cyclopropylpyrimidin-2-yl)ethyl)amino)-1-methyl-2-oxo-1,2-dihydroquinolin-6-yl)amino)nicotinonitrile]
- solubility at 20 h [2]: 32 µM (≈ 15.1 µg/mL)
- PAMPA7.4 [3]: 14 x10^-6 cms^-1

SMILES: CNC(=O)C(Nc1cc(=O)[nH]c2ccc(Nc3ccnc(Cl)c3C#N)cc12)C1CC1 (centres unmarked) [Compound 12d, 2-((6-((2-Chloro-3-cyanopyridin-4-yl)amino)-2-oxo-1,2-dihydroquinolin-4-yl)amino)-2-cyclopropyl-N-methylacetamide]
- IC50 [1, 4]: 1180 nM and 970 nM
- BCL6 TR-FRET pIC50 mean [1]: 5.97 and 5.967
- IC50 [1, 5]: 1080 nM
- IC50 [1, 6]: 1080 nM
- IC50 [1, 7]: 1100 nM
- solubility at 20 h [2]: 52 µM (≈ 22 µg/mL)

SMILES: CCNc1cc(=O)n(C)c2ccc(Nc3cc(C(=O)O)nc(Cl)c3C#N)cc12 [Compound 11a, 6-Chloro-5-cyano-4-((4-(ethylamino)-1-methyl-2-oxo-1,2-dihydroquinolin-6-yl)amino)picolinic Acid]
- IC50 [1, 4]: 810 nM and 840 nM and 1120 nM
- BCL6 TR-FRET pIC50 mean [1]: 6.05 and 6.045
- IC50 [1, 5]: 901 nM
- IC50 [1, 6]: 900 nM
- IC50 [1, 7]: 890 nM and 870 nM
- solubility at 20 h [2]: 237 µM (≈ 94.3 µg/mL)

Reference: PMC8667045, “Into Deep Water: Optimizing BCL6 Inhibitors by Growing into a Solvated Pocket” (Journal of Medicinal Chemistry, 2021)
